Experimental data as given in ChEMBL document CHEMBL1201862, “PubChem BioAssay data set” (2004).
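Step 1: Grow cells in 96-well plates. Step 2: Expose to compound for 48 hours at 5 concentrations. Step 3: Interpolate endpoints linearly; if unreached, use highest concentration. At the GI50, growth is halved.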 Activity calls are given as the source filed them. Rule as the data show it: active = GI50 up to about 1.1 µM and inactive = higher.

Legend:
Experiment in all cases: growth of human tumour cells (NCI), 48 h
[1] = system: RXF 393
[2] = system: A549
[3] = system: BT-549
[4] = system: SN12C
[5] = system: CCRF-CEM
[6] = system: NCI/ADR-RES
[7] = system: U-251
[8] = system: PC-3
[9] = system: SNB-19
[10] = system: SR
[11] = system: MDA-MB-435
[12] = system: MCF7
[13] = system: NCI-H522
[14] = system: NCI-H226
[15] = system: UACC-257
[16] = system: MDA-N
[17] = system: Malme-3M
[18] = system: NCI-H23
[19] = system: OVCAR-5
[20] = system: ACHN
[21] = system: TK-10
[22] = system: MOLT-4
[23] = system: EKVX
[24] = system: SF-268
[25] = system: CAKI-1
[26] = system: K562
[27] = system: HT-29
[28] = system: A498
[29] = system: OVCAR-8
[30] = system: SF-539
[31] = system: SK-MEL-28
[32] = system: HOP-92
[33] = system: SNB-75
[34] = system: RPMI-8226
[35] = system: KM12
[36] = system: 786-0
[37] = system: HL-60
[38] = system: LOX IMVI
[39] = system: OVCAR-3
[40] = system: Hs-578T
[41] = system: DU-145
[42] = system: HOP-62
[43] = system: COLO 205
[44] = system: IGROV-1
[45] = system: MDA-MB-231
[46] = system: UO-31
[47] = system: OVCAR-4
[48] = system: NCI-H460
[49] = system: HCT-15
[50] = system: SW-620
[51] = system: HCC 2998
[52] = system: SK-MEL-5
[53] = system: SF-295
[54] = system: HCT-116
[55] = system: M14
[56] = system: T47D
[57] = system: UACC-62
[58] = system: SK-OV-3
[59] = system: SK-MEL-2

Measured: GI50

O=C(NCc1ccccc1Cl)c1c(O)c2ccccc2[nH]c1=O
42.8 µM: [49]
inactive: [1] 21.2 µM | [2] 77.8 µM | [3] 34.9 µM | [4] > 100 µM | [5] > 100 µM | [6] 12.2 µM | [7] 18.7 µM | [8] 64.9 µM | [9] 39.4 µM | [10] > 100 µM | [11] 36 µM | [12] > 100 µM | [13] > 100 µM | [14] 44.7 µM | [15] > 100 µM | [16] 79.1 µM | [17] > 100 µM | [18] > 100 µM | [19] > 100 µM | [20] > 10 µM | [21] 56.4 µM | [22] > 100 µM | [23] > 100 µM | [24] 72.1 µM | [25] 22.7 µM | [26] > 100 µM | [27] 54.5 µM | [28] 15.9 µM | [29] 75 µM | [30] > 100 µM | [31] > 100 µM | [32] 27.9 µM | [33] 21.6 µM | [34] 57.8 µM | [35] > 100 µM | [36] 16.8 µM | [37] > 100 µM | [38] > 100 µM | [39] 32 µM | [40] 25.9 µM | [41] > 100 µM | [42] 19.1 µM | [43] 39.8 µM | [44] 24.6 µM | [45] 18.6 µM | [46] 13.6 µM | [47] 8.53 µM | [48] 18.7 µM | [50] 24.9 µM | [51] 33.3 µM | [52] 46.8 µM | [53] 33.4 µM | [54] 27.2 µM

CCOC(=N)n1c(=O)n(C2=NCCN2)c2ccccc21
> 100 µM: [49]
inactive: [1] > 100 µM | [2] > 100 µM | [3] > 100 µM | [4] > 100 µM | [5] > 100 µM | [6] > 100 µM | [7] > 100 µM | [8] > 100 µM | [9] > 100 µM | [55] > 100 µM | [10] > 100 µM | [11] > 100 µM | [12] > 100 µM | [13] > 100 µM | [14] > 100 µM | [15] > 100 µM | [16] > 100 µM | [17] > 100 µM | [18] > 100 µM | [19] > 100 µM | [20] > 100 µM | [56] > 100 µM | [21] > 100 µM | [22] > 100 µM | [23] > 100 µM | [24] > 100 µM | [57] > 100 µM | [25] > 100 µM | [26] > 100 µM | [27] > 100 µM | [28] > 100 µM | [29] > 100 µM | [30] > 100 µM | [31] > 100 µM | [32] > 100 µM | [33] 31.2 µM | [35] > 100 µM | [36] > 100 µM | [37] > 100 µM | [58] > 100 µM | [38] > 100 µM | [39] > 100 µM | [41] > 100 µM | [42] > 100 µM | [43] > 100 µM | [44] > 100 µM | [45] > 100 µM | [46] > 100 µM | [47] > 100 µM | [48] > 100 µM | [50] > 100 µM | [51] > 100 µM | [53] > 100 µM | [54] > 100 µM

COC1/C=C(C)/C=C/C(C)/C=C/C(=O)OC(/C(C)=C/C=C(\C)CNC(=O)[C@H](CO)NC=O)C(C)/C=C/C=C/C(OC)CC/C=C(C)/C=C/C1 (stereo partly specified)
0.111 µM: [49]
active: [1] 0.158 µM | [2] 0.0307 µM | [3] 0.0581 µM | [5] 0.0474 µM | [6] 0.407 µM | [7] 0.0673 µM | [8] 0.0264 µM | [9] > 1 µM | [55] 0.0183 µM | [11] 0.0224 µM | [12] 0.052 µM | [15] 0.0264 µM | [17] 0.0863 µM | [18] 0.0497 µM | [19] 0.0328 µM | [20] 0.0474 µM | [56] 0.0525 µM | [21] 0.356 µM | [22] 0.0206 µM | [23] 0.139 µM | [24] 0.113 µM | [57] 0.0251 µM | [25] 0.0706 µM | [26] 0.0192 µM | [59] 0.0341 µM | [27] 0.0125 µM | [28] > 1 µM | [29] 0.0399 µM | [30] 0.0281 µM | [31] > 0.283 µM | [32] 0.0447 µM | [33] > 1 µM | [34] 0.0215 µM | [35] 0.0195 µM | [36] 0.0288 µM | [37] 0.0225 µM | [58] > 1 µM | [38] 0.0265 µM | [39] 0.039 µM | [40] > 0.214 µM | [41] > 0.312 µM | [42] 0.0224 µM | [44] 0.262 µM | [45] 0.012 µM | [46] 0.197 µM | [47] 0.491 µM | [48] 0.0316 µM | [50] 0.0469 µM | [52] 0.0231 µM | [53] 0.0229 µM | [54] 0.0318 µM
